Data published in patent publication US6589916B1, “Method and composition for treating and promoting the growth of plants” (Amvac Chemical Corporation, priority 1999, dated 2003).

Key:
[1] = test system: live grass (Bermudagrass (Common, Midiron, and Ormond), Tifway II, Tifway 419, Tifdwarf, and Tifgreen 328 grasses); assay: Methyldithiocarbamate trials: spray treatment of live golf course grass plots, leaf appearance scored; assay type: in vivo; parameters: key to score for appearance of the grass leaves: 0: burning of leaf tissue; 1: bronzing of leaf tissue; 2: burning of the tip of the leaf tissue; 3: No burning or change in color of the leaf tissue; 4: good greening of the leaf tissue; 5: excellent greening of the leaf tissue
Protocol: The effect of the application of methylammonium methyldithiocarbamate to live grass was determined in the following manner. Dilute aqueous solutions of three salts of the same dithiocarbamic acid derivative were prepared: methylammonium methyldithiocarbamate, sodium methyldithiocarbamate, and potassium methyldithiocarbamate. The solutions were prepared by mixing the dithiocarbamic acid derivative with water to achieve a concentration of between about 1.2 and 3.5% by weight.
Three plots of grass of substantially equal type, quality, color, and size were selected at each of several golf courses throughout the state of Florida. The grass at these courses consisted of one or a combination of Bermudagrass (Common, Midiron, and Ormond), Tifway II, Tifway 419, Tifdwarf, and Tifgreen 328 grasses. To each of these plots one of the methyldithiocarbamate salts were applied via an ordinary above-ground spraying system in an amount equivalent to between about 0.5 to 40 lbs of methyldithiocarbamate salt per acre of soil. All applications were watered in with 1/2 inch of water within 20 minutes of treatment, which moved the dithiocarbamic acid derivative into and slightly below the root zone of the grass.
The results of treating each plot with the methyldithiocarbamate salts were evaluated from 1 to 2 weeks after treatment by examining the appearance of the grass leaves. A score was assigned to each plot according to the following scale: 0=burning of leaf tissue; 1=bronzing of leaf tissue; 2=burning of the tip of the leaf tissue; 3=No burning or change in color of the leaf tissue; 4=good greening of the leaf tissue; 5=excellent greening of the leaf tissue. Where two values were assigned, the plot contained a substantial number of grass leaves of one score and a substantial number of the other score.

[2] = test system: Morning Glory; settings: stated in U.S. Pat. No. 2,766,554; cited from earlier work
[3] = four hours ultraviolet light from an arc; U.S. Pat. No. 2,835,625; cited from earlier work
[4] = 1. Grenelefe Resort, treated February 1998, evaluation 2 weeks after treatment
[5] = 1. Grenelefe Resort, treated January 1998, evaluation 2 weeks after treatment
[6] = 1. Grenelefe Resort, treated March 1998, evaluation 2 weeks after treatment
[7] = 2. Long Boat Key, treated April 1998, evaluation 1 week after treatment
[8] = 2. Long Boat Key, treated February 1998, evaluation 2 weeks after treatment
[9] = 2. Long Boat Key, treated March 1998, evaluation 2 weeks after treatment
[10] = 3. Indian River Club, treated April 1998, evaluation 1 week after treatment
[11] = 3. Indian River Club, treated March 1998, evaluation 2 weeks after treatment
[12] = 3. Indian River Club, treated May 1998, evaluation 1 week after treatment
[13] = 4. La Cita C.C., treated June 1998, evaluation 1 week after treatment
[14] = 4. La Cita C.C., treated March 1998, evaluation 1 week after treatment
[15] = 4. La Cita C.C., treated September 1998, evaluation 1 week after treatment
[16] = 5. Wellington C.C., treated April 1998, evaluation 2 weeks after treatment
[17] = 6. Dodgertown C.C., treated April 1998, evaluation 1 week after treatment
[18] = 6. Dodgertown C.C., treated May 1998, evaluation 1 week after treatment
[19] = 7. Westchester C.C., treated April 1998, evaluation 1 week after treatment
[20] = 8. President Club, treated July 1998, evaluation 1 week after treatment
[21] = 8. President Club, treated May 1998, evaluation 1 week after treatment
[22] = 9. Vero Beach C.C., treated June 1998, evaluation 1 week after treatment
[23] = 10. Admirals Cove, treated July 1998, evaluation 1 week after treatment
[24] = 11. Moorings C.C., treated August 1998, evaluation 1 week after treatment
[25] = 12. Hawks Nest C.C., treated August 1998, evaluation 1 week after treatment
[26] = 13. Woodmont C.C., treated June 1998, evaluation 1 week after treatment
[27] = 13. Woodmont C.C., treated September 1998, evaluation 1 week after treatment

## CNC(=S)[S-].[K+] [POTASSIUM, potassium methyldithiocarbamate]
[1]; [4]
  score for appearance of the grass leaves: 1
[1]; [5]
  score for appearance of the grass leaves: 0
[1]; [6]
  score for appearance of the grass leaves: 0-1
[1]; [7]
  score for appearance of the grass leaves: 1-2
[1]; [8]
  score for appearance of the grass leaves: 1
[1]; [9]
  score for appearance of the grass leaves: 1-2
[1]; [10]
  score for appearance of the grass leaves: 0-1
[1]; [11]
  score for appearance of the grass leaves: 1
[1]; [12]
  score for appearance of the grass leaves: 1-2
[1]; [13]
  score for appearance of the grass leaves: 1
[1]; [14]
  score for appearance of the grass leaves: 2
[1]; [15]
  score for appearance of the grass leaves: 2
[1]; [16]
  score for appearance of the grass leaves: 1
[1]; [17]
  score for appearance of the grass leaves: 0
[1]; [18]
  score for appearance of the grass leaves: 1-2
[1]; [19]
  score for appearance of the grass leaves: 1
[1]; [20]
  score for appearance of the grass leaves: 2-3
[1]; [21]
  score for appearance of the grass leaves: 0
[1]; [22]
  score for appearance of the grass leaves: 1
[1]; [23]
  score for appearance of the grass leaves: 1-2
[1]; [24]
  score for appearance of the grass leaves: 1
[1]; [25]
  score for appearance of the grass leaves: 0
[1]; [26]
  score for appearance of the grass leaves: 1-2
[1]; [27]
  score for appearance of the grass leaves: 2-3

## CN.CNC(=S)S [METHYL AMMONIUM, methylammonium methyldithiocarbamate]
[1]; [4]
  score for appearance of the grass leaves: 3-4
[1]; [5]
  score for appearance of the grass leaves: 4
[1]; [6]
  score for appearance of the grass leaves: 4
[1]; [7]
  score for appearance of the grass leaves: 4
[1]; [8]
  score for appearance of the grass leaves: 4
[1]; [9]
  score for appearance of the grass leaves: 4
[1]; [10]
  score for appearance of the grass leaves: 4
[1]; [11]
  score for appearance of the grass leaves: 4
[1]; [12]
  score for appearance of the grass leaves: 4
[1]; [13]
  score for appearance of the grass leaves: 5
[1]; [14]
  score for appearance of the grass leaves: 5
[1]; [15]
  score for appearance of the grass leaves: 5
[1]; [16]
  score for appearance of the grass leaves: 5
[1]; [17]
  score for appearance of the grass leaves: 4
[1]; [18]
  score for appearance of the grass leaves: 4
[1]; [19]
  score for appearance of the grass leaves: 4
[1]; [20]
  score for appearance of the grass leaves: 5
[1]; [21]
  score for appearance of the grass leaves: 5
[1]; [22]
  score for appearance of the grass leaves: 4-5
[1]; [23]
  score for appearance of the grass leaves: 4
[1]; [24]
  score for appearance of the grass leaves: 5
[1]; [25]
  score for appearance of the grass leaves: 5
[1]; [26]
  score for appearance of the grass leaves: 5
[1]; [27]
  score for appearance of the grass leaves: 5
[1]; Grenelefe Resort, February
  appearance of the grass leaf tissue, in words: improved only marginally in color
[1]; all treated areas of Table 2
  appearance of the grass leaf tissue, summary in words: either good or excellent greening of the leaf tissue
[1]; all trials of Table 2
  results compared with potassium methyldithiocarbamate: far better results than the potassium methyldithiocarbamate
  results compared with sodium methyldithiocarbamate: better results than the sodium methyldithiocarbamate
[2]
  eradication of Morning Glory: excellent eradicator of Morning Glory

## CC(C)OC(=O)SC(=S)N(C)C [isopropoxycarbonyl dimethyldithiocarbamate]
[3]
  biological activity after ultraviolet light treatment: without losing any biological activity

## CNC(=S)[S-].[Na+] [SODIUM, sodium methyldithiocarbamate]
[1]; [4]
  score for appearance of the grass leaves: 3
[1]; [5]
  score for appearance of the grass leaves: 3
[1]; [6]
  score for appearance of the grass leaves: 3-4
[1]; [7]
  score for appearance of the grass leaves: 3
[1]; [8]
  score for appearance of the grass leaves: 2
[1]; [9]
  score for appearance of the grass leaves: 3
[1]; [10]
  score for appearance of the grass leaves: 3
[1]; [11]
  score for appearance of the grass leaves: 3
[1]; [12]
  score for appearance of the grass leaves: 3-4
[1]; [13]
  score for appearance of the grass leaves: 3-4
[1]; [14]
  score for appearance of the grass leaves: 4
[1]; [15]
  score for appearance of the grass leaves: 4
[1]; [16]
  score for appearance of the grass leaves: 3
[1]; [17]
  score for appearance of the grass leaves: 3
[1]; [18]
  score for appearance of the grass leaves: 3-4
[1]; [19]
  score for appearance of the grass leaves: 3
[1]; [20]
  score for appearance of the grass leaves: 4
[1]; [21]
  score for appearance of the grass leaves: 4
[1]; [22]
  score for appearance of the grass leaves: 3-4
[1]; [23]
  score for appearance of the grass leaves: 3-4
[1]; [24]
  score for appearance of the grass leaves: 4
[1]; [25]
  score for appearance of the grass leaves: 4
[1]; [26]
  score for appearance of the grass leaves: 4
[1]; [27]
  score for appearance of the grass leaves: 4
